Counter-ions that a name gives are not always drawn.
What was measured:
human NTCP [1] = target: T1, human NTCP (Homo sapiens, UniProt Q14973); assay: Screening taurocholate uptake assay (96-well, [14C]taurocholate, 10 µM drug); conditions: for B-score functional assay: 10 µM drug
T1 sequence (Q14973 1-349): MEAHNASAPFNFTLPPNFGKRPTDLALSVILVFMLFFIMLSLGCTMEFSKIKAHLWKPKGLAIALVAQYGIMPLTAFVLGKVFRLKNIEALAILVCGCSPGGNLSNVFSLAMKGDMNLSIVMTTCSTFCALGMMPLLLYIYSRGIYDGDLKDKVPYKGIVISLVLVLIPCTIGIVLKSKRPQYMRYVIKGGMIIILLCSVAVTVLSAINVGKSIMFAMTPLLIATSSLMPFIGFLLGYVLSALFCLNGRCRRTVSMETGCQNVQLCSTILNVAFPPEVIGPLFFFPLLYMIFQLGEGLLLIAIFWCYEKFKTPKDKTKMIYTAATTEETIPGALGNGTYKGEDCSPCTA

human NTCP [2] = target: T1, human NTCP; assay: Screening fluorescent competitive Myrcludex B-FITC binding assay (96-well, 10 µM drug); conditions: 10 µM drug
[3] = Prestwick library screen, B-score of taurocholate uptake
[4] = combined ranking from functional and binding assay B-scores
[5] = Prestwick library screen, B-score of Myrcludex B-FITC binding
[6] = combined ranking from functional and binding screening assays
[7] = screen, Myrcludex B-FITC binding
[8] = Prestwick library screen, taurocholate uptake
[9] = ranking score beside the functional and binding assay B-scores of the screen
[10] = Prestwick library screen, Myrcludex B-FITC binding
[11] = combined ranking of functional and binding screening assays
[12] = ranking over the functional and the binding screening assay

Structure (SMILES): CN1CCN(CCCN2c3ccccc3Sc3ccc(S(=O)(=O)N(C)C)cc32)CC1.CS(=O)(=O)O.CS(=O)(=O)O [Thioproperazine dimesylate]
- B-score functional assay (human NTCP [1]; [3]): 0.683
- Ranking score (human NTCP [1]; [4]): 1068.06
- B-score binding assay (human NTCP [2]; [5]): 1.771

Structure (SMILES): CCOC(=O)C(C)(C)Oc1ccc(Cl)cc1 [Clofibrate]
- B-score functional assay (human NTCP [1]; [3]): 1.746
- Ranking score (human NTCP [1]; [4]): 1068.42
- B-score binding assay (human NTCP [2]; [5]): 0.712

Structure (SMILES): CC(=O)OCC(=O)[C@H]1CC[C@H]2[C@@H]3CC[C@H]4C[C@H](O)CC[C@]4(C)[C@H]3C(=O)C[C@]12C [Alfadolone acetate]
- B-score functional assay (human NTCP [1]; [3]): 0.626
- Ranking score (human NTCP [1]; [4]): 1074.24
- B-score binding assay (human NTCP [2]; [5]): 2.253

Structure (SMILES): COc1ncnc(NS(=O)(=O)c2ccc(N)cc2)c1OC [Sulfadoxine]
- B-score functional assay (human NTCP [1]; [3]): 0.522
- Ranking score (human NTCP [1]; [4]): 887.31
- B-score binding assay (human NTCP [2]; [5]): 0.336

Structure (SMILES): c1ccc(CNc2ncnc3[nH]cnc23)cc1 [Aminopurine, 6-benzyl]
- Ranking score (human NTCP [1]; [6]): 337.92
- B-score functional assay (human NTCP [1]; screen, taurocholate uptake): -0.027
- B-score binding assay (human NTCP [2]; [7]): -1.308

Structure (SMILES): O=P(O)(O)C(Cl)(Cl)P(=O)(O)O [Clodronate]
- Ranking score (human NTCP [1]; [6]): 443.089
- B-score functional assay (human NTCP [1]; screen, taurocholate uptake): -0.468
- B-score binding assay (human NTCP [2]; [7]): -0.166

Structure (SMILES): CN(c1nccc(=O)[nH]1)C1CCN(c2nc3ccccc3n2Cc2ccc(F)cc2)CC1 [Mizolastine]
- B-score functional assay (human NTCP [1]; [3]): 0.906
- Ranking score (human NTCP [1]; [4]): 877.518
- B-score binding assay (human NTCP [2]; [5]): 0.089

Structure (SMILES): Cc1c(OCC(F)(F)F)ccnc1C[S+]([O-])c1nc2ccccc2[nH]1 (stereo not shown) [Lansoprazole]
- B-score functional assay (human NTCP [1]; [3]): 1.884
- Ranking score (human NTCP [1]; [4]): 961.173
- B-score binding assay (human NTCP [2]; [5]): 0.157

Structure (SMILES): COc1ccc([C@@H]2Sc3ccccc3N(CCN(C)C)C(=O)[C@@H]2OC(C)=O)cc1 [Diltiazem hydrochloride]
- Ranking score (human NTCP [1]; [6]): 351.949
- B-score functional assay (human NTCP [1]; screen, taurocholate uptake): -0.552
- B-score binding assay (human NTCP [2]; [7]): -0.608

Structure (SMILES): Cc1cc(C(C)(C)C)cc(C)c1CC1=NCCN1 [Xylometazoline hydrochloride]
- Ranking score (human NTCP [1]; [6]): 287.23
- B-score functional assay (human NTCP [1]; screen, taurocholate uptake): -0.462
- B-score binding assay (human NTCP [2]; [7]): -1.17

Structure (SMILES): CCCN(CCC)CCc1cccc2c1CC(=O)N2 [Ropinirole HCl]
- B-score functional assay (human NTCP [1]; [8]): -0.072
- Ranking score (human NTCP [1]; [9]): 825.121
- B-score binding assay (human NTCP [2]; [10]): 2.082

Structure (SMILES): CCn1cc(C(=O)O)c(=O)c2cc(F)c(N3CCNCC3)cc21 [Norfloxacin]
- B-score functional assay (human NTCP [1]; [8]): -0.135
- Ranking score (human NTCP [1]; [9]): 788.093
- B-score binding assay (human NTCP [2]; [10]): 2.084

Structure (SMILES): COc1ccccc1OCC(O)COC(N)=O (stereo not shown) [Methocarbamol]
- Ranking score (human NTCP [1]; [11]): 504.159
- B-score functional assay (human NTCP [1]; screening taurocholate uptake): -0.493

Structure (SMILES): CC[C@@H](CO)NCCN[C@@H](CC)CO [Ethambutol dihydrochloride]
- Ranking score (human NTCP [1]; [12]): 218.945
- B-score functional assay (human NTCP [1]; screening taurocholate uptake): -3.373

Structure (SMILES): CC(C)OC(=O)C(C)(C)Oc1ccc(C(=O)c2ccc(Cl)cc2)cc1 [Fenofibrate]
- Ranking score (human NTCP [1]; [12]): 212.979
- B-score functional assay (human NTCP [1]; screening taurocholate uptake): -0.159

Structure (SMILES): CN1C[C@H](CNC(=O)OCc2ccccc2)C[C@@H]2c3cccc4c3c(cn4C)C[C@H]21 [Metergoline]
- Ranking score (human NTCP [1]; [12]): 269.388
- B-score functional assay (human NTCP [1]; screening taurocholate uptake): -0.571

Structure (SMILES): C[N+](C)(C)CCOC(N)=O [Carbachol]
- Ranking score (human NTCP [1]; [11]): 511.9
- B-score functional assay (human NTCP [1]; screening taurocholate uptake): 0.619

Structure (SMILES): CCCC(C(=O)OCCN(CC)CC)(c1ccccc1)c1ccccc1 [Proadifen hydrochloride]
- Ranking score (human NTCP [1]; [11]): 468.828
- B-score functional assay (human NTCP [1]; screening taurocholate uptake): -1.354

Structure (SMILES): CC(C)NC[C@H](O)COc1cccc2ccccc12 [(S)-propranolol hydrochloride]
- Ranking score (human NTCP [1]; [11]): 599.166
- B-score functional assay (human NTCP [1]; screening taurocholate uptake): -0.168

Structure (SMILES): C[C@@H]1[C@H](O)[C@@H](C)/C=C/C=C/C=C/C=C/C=C/C=C/C=C/[C@H](O[C@@H]2O[C@H](C)[C@@H](O)[C@H](N)[C@@H]2O)C[C@@H]2O[C@](O)(C[C@@H](O)C[C@@H](O)[C@H](O)CC[C@@H](O)C[C@@H](O)CC(=O)O[C@H]1C)C[C@H](O)[C@H]2C(=O)O [Amphotericin B]
- Ranking score (human NTCP [1]; [12]): 61.0819
- B-score functional assay (human NTCP [1]; screening taurocholate uptake): -7.097

Structure (SMILES): CC/C(=C(/CC)c1ccc(O)cc1)c1ccc(O)cc1 [Diethylstilbestrol]
- Ranking score (human NTCP [1]; [12]): 262.907
- B-score functional assay (human NTCP [1]; screening taurocholate uptake): -0.349

Structure (SMILES): CC(C)(C)C(=O)OCOC(=O)[C@@H]1N2C(=O)[C@@H](NC(=O)[C@H](N)c3ccccc3)[C@H]2SC1(C)C [Pivampicillin]
- Ranking score (human NTCP [1]; [12]): 199.66
- B-score functional assay (human NTCP [1]; screening taurocholate uptake): 2.096

Structure (SMILES): CN(C)CCCC1(c2ccc(F)cc2)OCc2cc(C#N)ccc21 (stereo not shown) [Citalopram Hydrobromide]
- Ranking score (human NTCP [1]; [12]): 277.496
- B-score functional assay (human NTCP [1]; screening taurocholate uptake): -1.909

Source: PMC5681660, “Reduced hepatitis B and D viral entry using clinically applied drugs as novel inhibitors of the bile acid transporter NTCP” (Scientific Reports, 2017)
